Laboratory results taken from US20080063628A1, “METHODS TO PROMOTE CELL DIFFERENTIATION” (priority 2006, published 2008).

Columns and labels:
Format in all cases: cell-based, human
[1] = test system: amniotic fluid-derived cell line AFCA009-A; experiment: Trichostatin A 24 h time course, gene expression by Real-Time PCR (Example 2); details: 1.25 μM
Description: Amniotic fluid derived cells were seeded into 24-well tissue culture plates at a density of 5000/cm^2 and cultured in AMNIOMAX medium (Invitrogen) under standard cell culture conditions until confluent. Cells were obtained according to methods described in Example 14. After reaching confluence, 1.25 μM trichostatin A diluted in DMSO and medium was added to sample wells; an equivalent concentration of DMSO was added to control wells as a no treatment control.
RNA samples were obtained from treated cultures at 30 minutes, 1.5 hours, 3 hours, 6 hours, 12 hours, and 24 hours following addition of trichostatin A or DMSO. Culture medium was removed, cells were washed with PBS, and RLT lysis buffer with β-mercaptoethanol (Qiagen) was added. RNA was purified using the RNeasy Mini Kit (Qiagen). RNA quantity and quality was determined using a spectrophotometer, and cDNA was made using the iScript cDNA synthesis kit (BioRad).
Expression levels of Sox17, HNF-3 beta, Pdx-1, insulin, and glucagon were determined by Real-Time PCR. Samples of 20 ng cDNA were used in each reaction, performed on the Applied Biosystems 7500 according to methods described in Example 15. Data analysis was performed using the accompanying software. Human pancreas cDNA was included as a positive control, and results were normalized against GAPDH expression levels.
(§1) Real-time PCR amplifcation and quantitative analysis. Unless otherwise stated, all reagents were purchased from Applied Biosystems. Real-time PCR reactions were performed using the ABI PRISM™ 7500 Sequence Detection System. TAQMAN™ FAST UNIVERSAL PCR MASTER MIX™ (ABI, CA) was used with 20 ng of reverse transcribed RNA in a total reaction volume of 20 μl. Each cDNA sample was run in duplicate to allow correction of pipetting errors. Primers and FAM-labeled TAQMAN™ probes were used at concentrations of 200 nM. The level of expression for each target gene was normalized using the pre-developed Applied Biosystem's human glyceraldehyde-3-phosphate dehydrogenase (GAPDH) endogenous control kit. Primers and probes were designed using either ABI PRISM PRIMER EXPRESS™ software or a pre-developed ABI gene analysis kit. For each gene, either one of the primers or the probe were designed to be exon-boundary spanning. This eliminated the possibility of the primers/probe binding to any genomic DNA present. The primer and probe sets are listed as follows: Pdx-1 (Hs00426216), Insulin (Hs00355773), glucagon (Hs00174967), and FoxA2 (HNF 3-beta) (Hs00232764). The remaining primers were designed using the PRIMERS program (ABI, CA). After an initial 95° C. incubation for 20 sec, samples were cycled 40 times in two stages: a denaturation step at 95° C. for 3 sec, followed by an annealing/extension step at 60° C. for 30 sec.
(§2) For each primer/probe set, a cycle time value was determined as the cycle number at which the fluorescence intensity of the PCR reaction reached a specific value in the middle of the exponential region of amplification. An increase in expression of a gene corresponded to a decrease in the number of cycles required for the fluorescence intensity to reach this value.

[2] = test system: amniotic fluid-derived cell line; experiment: 6 hour trichostatin A treatment, gene expression by RT-PCR (Example 10); details: for Gata1 gene expression / HNF-3 beta gene expression / Insulin gene expression / Pdx-1 gene expression / sox17 gene expression: 1.25 μM for 6 h then removed
Description: (§3) Amniotic fluid derived cells or pancreas-derived cells were seeded into 24-well tissue culture plates at a density of 5000/cm^2 and cultured in AMNIOMAX (Invitrogen) or DMEM with 10% FBS respectively under standard cell culture conditions until confluency was reached. Upon reaching confluency, amniotic fluid derived cells were treated with 1.25 μM trichostatin A and pancreas-derived stromal cells were treated with 5.0 μM trichostatin A. The media was changed 6 hours following the addition of trichostatin A and cultures were maintained for the remainder of the experiment. Several cell lines obtained from amniotic fluid (see Example 14) and pancreas (see Example 13) were tested.
(§4) RNA samples were obtained at the time the trichostatin A was removed and 24 hours from the start of the experiment. The culture media was removed and cells were washed with PBS then collected in RLT Lysis Buffer with β-mercaptoethanol (Qiagen). RNA was purified using the RNeasy Mini Kit (Qiagen) and RNA quantity and quality was determined using a spectrophotometer. cDNA was made using the iScript cDNA synthesis kit (BioRad). Human pancreas cDNA was included as a control. Results were normalized against GAPDH expression levels.
(§5) The expression levels of Sox17, HNF-3 beta, Pdx-1, Insulin, and Gata-1 were analyzed in amniotic-derived cells while the expression levels of glucagon, insulin, PDX-1 and HNF-3 beta were analyzed in pancreas-derived cells. 20 ng of cDNA was used in each RT-PCR reaction, which was performed on the Applied Biosystems 7500, according to the methods described in Example 15. Data was analyzed using the accompanying software.
as §1, §2

[3] = test system: late passage (P11) pancreatic-derived stromal cell line; experiment: as above; details: for HNF-3 beta gene expression / Insulin gene expression / Pdx-1 gene expression / glucagon gene expression: 5 μM for 6 h then removed
Description: as §3, §4, §5, §1, §2

[4] = 5.0 μM, following 6 h treatment

CC(/C=C/C(=O)NO)=C\[C@@H](C)C(=O)c1ccc(N(C)C)cc1 [trichostatin A]
HNF-3 beta gene expression ([1]; 0.5 h): + (detectable between 35 and 40 cycles by RT-PCR) | Insulin gene expression ([1]; 0.5 h): + (detectable between 35 and 40 cycles by RT-PCR) | PDX-1 gene expression ([1]; 0.5 h): nd (not detectable at >40 cycles by RT-PCR) | Sox17 gene expression ([1]; 0.5 h): +++ (detectable at less than 35 cycles by RT-PCR with std error less than 0.9) | glucagon gene expression ([1]; 0.5 h): nd (not detectable at >40 cycles by RT-PCR) | HNF-3 beta RT-PCR detection cycle ([1]; 30 minutes): > 35 cycles | HNF-3 beta gene expression ([1]; 1.5 h): + (detectable between 35 and 40 cycles by RT-PCR) | Insulin gene expression ([1]; 1.5 h): + (detectable between 35 and 40 cycles by RT-PCR) | PDX-1 gene expression ([1]; 1.5 h): nd (not detectable at >40 cycles by RT-PCR) | Sox17 gene expression ([1]; 1.5 h): +++ (detectable at less than 35 cycles by RT-PCR with std error less than 0.9) | glucagon gene expression ([1]; 1.5 h): nd (not detectable at >40 cycles by RT-PCR) | HNF-3 beta gene expression ([1]; 3 h): +++ (detectable at less than 35 cycles by RT-PCR with std error less than 0.9) | Insulin gene expression ([1]; 3 h): + (detectable between 35 and 40 cycles by RT-PCR) | PDX-1 gene expression ([1]; 3 h): nd (not detectable at >40 cycles by RT-PCR) | Sox17 gene expression ([1]; 3 h): +++ (detectable at less than 35 cycles by RT-PCR with std error less than 0.9) | glucagon gene expression ([1]; 3 h): nd (not detectable at >40 cycles by RT-PCR) | HNF-3 beta gene expression ([1]; 6 h): +++ (detectable at less than 35 cycles by RT-PCR with std error less than 0.9) | Insulin gene expression ([1]; 6 h): nd (not detectable at >40 cycles by RT-PCR) | PDX-1 gene expression ([1]; 6 h): + (detectable between 35 and 40 cycles by RT-PCR) | Sox17 gene expression ([1]; 6 h): +++ (detectable at less than 35 cycles by RT-PCR with std error less than 0.9) | glucagon gene expression ([1]; 6 h): nd (not detectable at >40 cycles by RT-PCR) | Pdx-1 RT-PCR detection cycle ([1]; 6 hours): > 35 cycles | HNF-3 beta gene expression ([1]; 12 h): +++ (detectable at less than 35 cycles by RT-PCR with std error less than 0.9) | Insulin gene expression ([1]; 12 h): + (detectable between 35 and 40 cycles by RT-PCR) | PDX-1 gene expression ([1]; 12 h): +++ (detectable at less than 35 cycles by RT-PCR with std error less than 0.9) | Sox17 gene expression ([1]; 12 h): +++ (detectable at less than 35 cycles by RT-PCR with std error less than 0.9) | glucagon gene expression ([1]; 12 h): + (detectable between 35 and 40 cycles by RT-PCR) | glucagon RT-PCR detection cycle ([1]; 12 hours): > 35 cycles | HNF-3 beta gene expression ([1]; 24 h): +++ (detectable at less than 35 cycles by RT-PCR with std error less than 0.9) | Insulin gene expression ([1]; 24 h): + (detectable between 35 and 40 cycles by RT-PCR) | PDX-1 gene expression ([1]; 24 h): +++ (detectable at less than 35 cycles by RT-PCR with std error less than 0.9) | Sox17 gene expression ([1]; 24 h): +++ (detectable at less than 35 cycles by RT-PCR with std error less than 0.9) | glucagon gene expression ([1]; 24 h): +++ (detectable at less than 35 cycles by RT-PCR with std error less than 0.9) | HNF-3 beta RT-PCR detection cycle ([1]; 24 hours): < 35 cycles | Pdx-1 RT-PCR detection cycle ([1]; 24 hours): < 35 cycles | Pdx-1 gene expression relative to human pancreas ([1]; 24 hours): ~0.1 % of human pancreas levels | glucagon RT-PCR detection cycle ([1]; 24 hours): < 24 cycles | Gata1 gene expression ([2]; 6 hrs): nd (not detectable at >40 cycles by RT-PCR) | HNF-3 beta gene expression ([2]; 6 hrs): +++ (detectable at less than 35 cycles by RT-PCR with SE less than 0.9) | Insulin gene expression ([2]; 6 hrs): nd (not detectable at >40 cycles by RT-PCR) | Pdx-1 gene expression ([2]; 6 hrs): + (detectable between 35 and 40 cycles by RT-PCR) | sox17 gene expression ([2]; 6 hrs): +++ (detectable at less than 35 cycles by RT-PCR with SE less than 0.9) | Gata1 gene expression ([2]; 24 hrs): nd (not detectable at >40 cycles by RT-PCR) | HNF-3 beta gene expression ([2]; 24 hrs): +++ (detectable at less than 35 cycles by RT-PCR with SE less than 0.9) | Insulin gene expression ([2]; 24 hrs): nd (not detectable at >40 cycles by RT-PCR) | Pdx-1 gene expression ([2]; 24 hrs): nd (not detectable at >40 cycles by RT-PCR) | sox17 gene expression ([2]; 24 hrs): +++ (detectable at less than 35 cycles by RT-PCR with SE less than 0.9) | Pdx-1 RT-PCR detection cycle ([2]; 1.25 μM, after treatment (37 before treatment)): 35 cycles | HNF-3 beta RT-PCR detection cycle ([2]; 1.25 μM, following 6 h treatment): 32 cycles | HNF-3 beta RT-PCR detection cycle ([2]; 1.25 μM, following the wash): 35 cycles | HNF-3 beta gene expression ([3]; 6 hrs): + (detectable between 35 and 40 cycles by RT-PCR) | Insulin gene expression ([3]; 6 hrs): nd (not detectable at >40 cycles by RT-PCR) | Pdx-1 gene expression ([3]; 6 hrs): + (detectable between 35 and 40 cycles by RT-PCR) | glucagon gene expression ([3]; 6 hrs): + (detectable between 35 and 40 cycles by RT-PCR) | HNF-3 beta gene expression ([3]; 24 hrs): nd (not detectable at >40 cycles by RT-PCR) | Insulin gene expression ([3]; 24 hrs): nd (not detectable at >40 cycles by RT-PCR) | Pdx-1 gene expression ([3]; 24 hrs): nd (not detectable at >40 cycles by RT-PCR) | glucagon gene expression ([3]; 24 hrs): + (detectable between 35 and 40 cycles by RT-PCR) | HNF-3 beta RT-PCR detection cycle [3, 4]: 36 cycles | Pdx-1 RT-PCR detection cycle [3, 4]: 37 cycles | glucagon RT-PCR detection cycle [3, 4]: 37 cycles | glucagon RT-PCR detection cycle ([3]; 5.0 μM, following the removal): 35 cycles
